Laboratory results published in PMC4805609, “Estrogenic Effects of Several BPA Analogs in the Developing Zebrafish Brain” (Frontiers in Neuroscience, 2016).

Legend:
cyp19a1b gene = experiment: RT-qPCR of cyp19a1b transcripts in wild type 7-dpf larva brains; settings: for fold induction at 1 µM: Danio rerio, read-out: cyp19a1b gene expression, fold induction relative to DMSO, 1 μM, 7-dpf larvae brains, six independent exposures, Figure 1B
Description: (§1) For subsequent RT-qPCR and in situ hybridization analysis with wild type zebrafish, groups of 80 embryos (for each condition) were placed after 1 day post-fertilization (1-dpf) in a large glass flask containing 100 ml of embryonic medium (Mouriec et al., [2009b]). […] The embryos were held in the exposure flasks until 7-dpf larva stage. […] Embryos were maintained in the exposure dishes until 4-dpf larva stage. During the treatment period, 100% of the exposure medium was renewed every 24 h (for both wild type and transgenic zebrafish).
Tissue was sonicated (10 s, 3 times) in 250 μL Trizol Reagent (Invitrogen) and RNA extractions were carried out according to the manufacturer's protocol. Reverse transcription was carried out by incubating 2μg total RNA with 1μg of random primer oligonucleotides, 2.5ṁM dNTPs, and 50 U MMLV-RT (Promega) in the appropriate buffer for 10 min at 65°C and 60 min at 37°C. Quantitative Polymerase chain reaction (qPCR) experiments were performed in an iCycler thermocycler coupled to the MyiQ detector (Bio-Rad. Hercules, CA, USA) using iQ SYBR-Green Supermix (Bio-Rad) according to the manufacturer's protocol. The following primers were used: ef1 (fw) 5′-[…]-3′; ef1 (rev) 5′-[…]-3′; cyp19a1b (AroB; fw) 5′-[…] For each condition, the RT-PCR experiment was run in triplicates. Expression levels of ef1 mRNA were used to normalize cyp19a1b expression levels. Melting curve and PCR efficiency analyses were performed to confirm correct amplification. For quantification of PCR results, the threshold cycle (Ct) was determined for each reaction. Ct values for each gene of interest were normalized with the housekeeping gene ef1, using the ΔΔCt method. Normalized values were used to calculate the degree of induction or inhibition expressed as a “fold difference” compared to normalized control values.

cyp19a1b promoter = experiment: EASZY assay: GFP fluorescence in brain of live cyp19a1b-GFP transgenic 4-dpf larvae; type: in vivo, zebrafish; settings: 4-dpf cyp19a1b-GFP larvae, exposure 2 hpf to 4 dpf; for fold induction at 1 µM: Danio rerio, read-out: GFP fluorescence, fold induction above DMSO control
Description: Quantification of fluorescence in transgenic cyp19a1b-GFP zebrafish larva brain was performed according to Brion et al. ([2012]). In this assay, estrogenic activity is detected in living 4 days-old larvae (treated or not with an estrogen mimic compound) from the observation of the reporter gene fluorescence in the radial glial cells. […] All photographs were taken using the same parameters: only the head was photographed under a X10 objective, with a 134 ms exposure time and maximal intensity. Photographs were analyzed using the Axiovision Imaging software and fluorescence quantification was performed using the ImageJ software (http://rsbweb.nih.gov/ij/). For each picture, the integrated density was measured, i.e., the sum of the gray-values of all the pixels within the region of interest. A gray-value of 290 was defined as background value. For each micrograph the fluorescence fold induction of fluorescence was calculated comparing the integrated pixel density with the average fluorescence induction obtained in the control group.

cyp19a1b transcripts = experiment: cyp19a1b in situ hybridization on 7-dpf brain sections; type: in vivo, zebrafish; settings: 1 μM, 7-dpf larvae; for distribution of cyp19a1b transcripts in the whole brain: transverse sections
Description: as §1
Larvae used for in situ hybridization experiments originated from the same exposition groups than RT-qPCR experiments. After exposure to the different conditions, 10 wild type 7-dpf larvae (for each treatment) were fixed overnight at 4°C in 4% paraformaldehyde, before embedding in parrafin. Serial thin transverse sections ([…]) were placed on cryofrost slides and subjected to in situ hybridization experiments. Sense and antisense digoxigenin-labeled riboprobes for the cyp19a1b gene were transcribed using the Digoxigenin RNA labeling kit in accordance with the manufacturer's instructions (Roche, Mannheim, Germany) and as previously described (Menuet et al., [2005]). The brain sections were processed for in situ hybridization using stringent conditions as previously published (D'Amico et al., [2011], [2013]). After NBT/BCIP revelation, sections were counterstained with DAPI, and mounted in a drop of vectashield (Vector Laboratories). All sections were photographed with an Olympus PROVIS AX70 microscope with a digital camera (Olympus SP71), or a Nikon multizoom AZ100 macroscope with a DS-Ri1 color camera.

zfERα = biological target: T1, zfERα (Danio rerio, UniProt P57717); experiment: cyp19a1b-luciferase reporter gene assay in U251-MG glial cells transfected with zfERα; type: cell-based, zebrafish; design: containing the coding regions of each zebrafish estrogen receptor cDNA; expressed in transfected cells; host or cells: human U251-MG glial cells (ER-negative); settings: 10–6 M, 24 h, U251-MG cells with ERα, vs DMSO
T1 sequence (P57717 1-569): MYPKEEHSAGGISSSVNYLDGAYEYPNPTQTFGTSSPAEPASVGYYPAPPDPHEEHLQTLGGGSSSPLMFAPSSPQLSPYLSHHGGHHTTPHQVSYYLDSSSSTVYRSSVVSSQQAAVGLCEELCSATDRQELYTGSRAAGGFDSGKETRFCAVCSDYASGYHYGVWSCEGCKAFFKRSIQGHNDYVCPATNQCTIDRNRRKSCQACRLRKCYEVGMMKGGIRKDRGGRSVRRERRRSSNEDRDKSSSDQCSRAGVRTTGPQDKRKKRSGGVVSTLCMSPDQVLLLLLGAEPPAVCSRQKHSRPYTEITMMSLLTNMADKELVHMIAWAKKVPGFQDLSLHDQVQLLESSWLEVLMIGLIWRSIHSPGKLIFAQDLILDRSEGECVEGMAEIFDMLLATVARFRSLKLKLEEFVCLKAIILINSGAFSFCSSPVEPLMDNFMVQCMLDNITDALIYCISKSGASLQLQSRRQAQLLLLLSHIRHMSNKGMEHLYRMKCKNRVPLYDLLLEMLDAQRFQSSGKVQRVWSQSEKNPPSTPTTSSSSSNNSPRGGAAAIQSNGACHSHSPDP
Description: (§2) The medium was also supplemented with 20 U/mL penicillin, 20 μg/mL streptomycin, and 50 ng/mL amphotericin B (Gibco). For transfections, cells were plated in 24-well plates at a density of 25,000 cells/ml in the same medium, except the fetal calf serum was charcoal-treated and used at a concentration of 2.5%. Cells were transfected with 25 ng/well either the vector expression containing or not the zfERα, zfERβ1, zfERβ2 coding region and cytomegalovirus [CMV]−β-Galactosidase, and 150 ng/well of the cyp19a1b-Luciferase reporter plasmid, using JetPEI as a transfection reagent (Polyplus Transfection, Illkirch, France). […] Luciferase activity was measured 24 h later (Luciferase assay system, Promega, Madison, WI, USA). β-Galactosidase activity was used to normalize transfection efficiency. Chemicals were tested in at least 3 independent experiments and each experiment was performed in triplicate.

zfERβ2 = zfERβ2 (Danio rerio, UniProt Q7ZU32); experiment: cyp19a1b-luciferase reporter gene assay in U251-MG glial cells transfected with zfERβ2; type: cell-based, zebrafish; settings: 10–6 M, 24 h, U251-MG cells with ERβ2, vs DMSO
Chain of zfERβ2 (Q7ZU32 1-553): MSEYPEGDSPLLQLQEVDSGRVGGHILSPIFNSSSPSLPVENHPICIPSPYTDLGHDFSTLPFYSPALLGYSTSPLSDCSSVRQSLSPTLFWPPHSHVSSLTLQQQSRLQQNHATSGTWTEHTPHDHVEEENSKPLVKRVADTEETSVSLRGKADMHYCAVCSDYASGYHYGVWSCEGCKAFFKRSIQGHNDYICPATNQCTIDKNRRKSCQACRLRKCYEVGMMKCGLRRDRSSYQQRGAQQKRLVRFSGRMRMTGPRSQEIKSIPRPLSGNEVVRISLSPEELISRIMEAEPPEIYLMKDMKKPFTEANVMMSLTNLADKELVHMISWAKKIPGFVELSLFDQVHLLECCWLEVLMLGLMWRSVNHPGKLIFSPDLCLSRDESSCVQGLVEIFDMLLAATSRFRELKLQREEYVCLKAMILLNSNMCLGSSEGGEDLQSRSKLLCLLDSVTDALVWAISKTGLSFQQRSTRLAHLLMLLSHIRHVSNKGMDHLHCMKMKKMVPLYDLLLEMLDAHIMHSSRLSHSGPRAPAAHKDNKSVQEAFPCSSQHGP
Description: as §2

SMILES: Oc1ccc(C(c2ccc(O)cc2)(C(F)(F)F)C(F)(F)F)cc1 [BPAF, 2,2-bis(4-hydroxylphenyl)hexafluoropropane]
- fold induction at 1 µM (cyp19a1b gene): ~43
- fold induction at 1 µM (cyp19a1b promoter): 14
- distribution of cyp19a1b transcripts in the whole brain (cyp19a1b transcripts): identical to EE2- and BPA-treated animals
- cyp19a1b-luciferase reporter gene induction (zfERα): significant stimulation

SMILES: CC(c1ccccc1)(c1ccc(O)cc1)c1ccc(O)cc1 [BPAP, 4,4′-(1-phenylethylidene)bisphenol]
- cyp19a1b gene expression, fold induction relative to DMSO (cyp19a1b gene; 1 μM, 7-dpf larvae brains, six independent exposures, Figure 1B): no effect
- GFP fluorescence, fold induction above DMSO control (cyp19a1b promoter; 1 μM): did not affect GFP fluorescence signal
- cyp19a1b transcripts in the nucleus recessus posterioris (nrp), caudal hypothalamus (cyp19a1b transcripts): increase in cyp19a1b transcripts in the nrp region (Figure 5H) albeit to a lower levels
- distribution of cyp19a1b transcripts in the whole brain (cyp19a1b transcripts): induces expression of cyp19a1b transcripts in only a few (xeno) estrogen-sensitive cyp19a1b expression sites
- cyp19a1b-luciferase reporter gene induction (zfERβ2): did not stimulate
- cyp19a1b-luciferase reporter gene induction (zfERα): did not stimulate

SMILES: O=S(=O)(c1ccc(O)cc1)c1ccc(O)cc1 [BPS, bis-(4-hydroxyphenyl)sulfone]
- fold induction at 1 µM (cyp19a1b gene): ~41
- fold induction at 1 µM (cyp19a1b promoter): 6
- distribution of cyp19a1b transcripts in the whole brain (cyp19a1b transcripts): identical to EE2- and BPA-treated animals
- cyp19a1b-luciferase reporter gene induction (zfERβ2): did not stimulate
- cyp19a1b-luciferase reporter gene induction (zfERα): did not stimulate
